Results reported in patent EP0414533A1, “Use of iodopropargyl esters of alpha-amino acid derivatives as antimicrobial agents” (ROHM AND HAAS COMPANY, priority 1989, dated 1991).
In brackets after ≈: the same amount, converted by molar mass. Counter-ions that a name gives are not always drawn. Like-named read-outs stand apart in the source and are kept apart here.

Key:
[1] = test system: Aureobasidium pullulans (APUL); assay: Minimum inhibitory concentration (MIC), broth two-fold serial dilution test; assay type: cell-based; conditions: Aureobasidium pullulans
Aspergillus niger (ANIG) = assay: as above; assay type: cell-based; conditions: Aspergillus niger
Fusarium roseum (FUS) = assay: In-vitro plant fungicide test; assay type: cell-based; conditions: Fusarium sambucinum, read-out: % Control at 25 ppm FUS, 25 ppm; Table IVa; *=Phytotoxic
[2] = test system: Phytophthora capsici (PHY); assay: In-vitro plant fungicide test; assay type: cell-based; conditions: Phytophthora capsici; 25 ppm; Table IVa; read-out: % Control at 25 ppm PHY
Botrytis cinerea (BOC) = assay: In-vitro plant fungicide test; assay type: cell-based; conditions: Botrytis cinerea, 25 ppm; Table IVa; *=Phytotoxic; read-out: % Control at 25 ppm BOC
THREE FUNGI = assay: MIC test against three fungi in Mycophile Broth, pH 5.0, read after 8 days (Table VII); assay type: cell-based; conditions: 192 h
Rhizoctonia solani (RHI) = assay: In-vitro plant fungicide test; assay type: cell-based; conditions: Rhizoctonia solani; 25 ppm; Table IVa; read-out: % Control at 25 ppm RHI
[3] = test system: Xanthomonas campestris (XAN); assay: In-vitro plant fungicide test; assay type: cell-based; conditions: Xanthomonas campestris; 25 ppm; Table IVa; read-out: % Control at 25 ppm XAN
[4] = test system: Cochliobolus sativus (HEL); assay: In-vitro plant fungicide test; assay type: cell-based; conditions: Bipolaris sorokiniana, 25 ppm; Table IVa; *=Phytotoxic; read-out: % Control at 25 ppm HEL
Septoria nodorum (SEP) = assay: In-vitro plant fungicide test; assay type: cell-based; conditions: Parastagonospora nodorum, 25 ppm; Table IVa; read-out: % Control at 25 ppm SEP
Piricularia oryzae (PIR) = assay: microbe, parasite or virus in culture; assay type: cell-based; conditions: read-out: % Control at 25 ppm PIR
[5] = test system: Pseudomonas fluorescens (PSFL); assay: Minimum inhibitory concentration (MIC), broth two-fold serial dilution test; conditions: Pseudomonas fluorescens
Escherichia coli (ECOL) = assay: as above; conditions: Escherichia coli
Source text: (§1) When the test is ready to be done, each vessel in the dilution series, except the first vessel, contains an equal volume of compound free broth. The first vessel contains twice the volume of broth with the starting concentration of test compound. One half of the broth from the first vessel is transferred to the second vessel. After being mixed, one half the resulting volume is removed from the second vessel and transferred to the third vessel. The entire cycle is repeated sufficiently to give a series of concentrations amounting to 500, 250, 125, 63, 31, 16, 8, and 4 ppm (or 100, 50, 25, 12.5, 6.2, 3.1, 1.6, and 0.8), respectively.
(§2) Each vessel is then inoculated with a cell suspension of the appropriate test organism. Bacteria are grown in broth, fungi on agar slants for a time and at a temperature appropriate to the species being tested, and algae are a mixture of green algae and blue-green bacteria grown in a nutrient media. At the end of the growth period, in the case of bacteria, the broth is vortexed to disperse the cells.
(§3) The vessels are then incubated at the appropriate temperature. After the incubation, the vessels are examined for growth/no growth.

[6] = test system: Pseudomonas aerugenosa (PSAE); assay: as above; conditions: Pseudomonas
Source text: as §1, §2, §3

Pythium ultimum (PYU) = assay: In-vitro plant fungicide test; assay type: cell-based; conditions: Globisporangium ultimum; 25 ppm; Table IVa; read-out: % Control at 25 ppm PYU
[7] = test system: Staphylococcus aureus (SAUR); assay: Minimum inhibitory concentration (MIC), broth two-fold serial dilution test; conditions: Staphylococcus aureus
[8] = test system: MIXED COOLING TOWER ALGAE; assay: MIC test against mixed cooling tower algae; assay type: cell-based, green algae and blue-green bacteria; conditions: Table VIII
Method: The algae culture contains green algae and blue-green bacteria, and is obtained from a cooling tower in Spring House, Pennsylvania. The algae culture is grown in Allen's medium on a rotary shaker under flourescent room lighting. This culture is further diluted with Allen's medium and then added to the test vessel.

8 FUNGI = assay: Microbicides secondary test against 8 fungi on Mycophile Agar at pH 5.0 (Table VI); assay type: cell-based; parameters: key: 1= no growth; 0= growth of the indicated fungi at dose indicated in ppm; conditions: for ANIG growth: Aspergillus niger; for APUL growth: Aureobasidium pullulans; for CGLO growth: Chaetomium globosum; for CRES growth: Cladosporium resinae; for GTRA growth: Gloeophyllum trabeum; for PFUN growth: Penicillium funiculosum; for RRUB growth: Rhodotorula rubra; for SSER growth: Sacharomyces cerevisiae
Source text: The results of the minimum inhibitory concentration (MIC) tests of compounds of this invention are shown in Tables IIIa IIIb, IIIc, V, VI, VII, and VIII against the microorganisms shown in Table IX.

[9] = Aspergillus niger, serial dilutions from 50 ppm, read after 8 days of incubation, read-out: MIC ANIG
[10] = Aureobasidium pullulans, serial dilutions from 50 ppm, read after 8 days of incubation, read-out: MIC APUL
[11] = Gloeophyllum trabeum, serial dilutions from 50 ppm, read after 8 days of incubation, read-out: MIC GTRA
[12] = read-out: MIC (G-) PSFL, M9G (minimal salts media with glucose), Table IIIc, iodopropargyl esters of peptides
[13] = read-out: MIC (G-) ECOL, M9G (minimal salts media with glucose), Table IIIc, iodopropargyl esters of peptides
[14] = read-out: MIC (G-) PSAE, M9G (minimal salts media with glucose), Table IIIc, iodopropargyl esters of peptides
[15] = read-out: MIC (G+) SAUR, M9G (minimal salts media with glucose), Table IIIc, iodopropargyl esters of peptides
[16] = read-out: MIC (F) APUL, M9G (minimal salts media with glucose), Table IIIc, iodopropargyl esters of peptides
[17] = read-out: MIC (F) ANIG, M9G (minimal salts media with glucose), Table IIIc, iodopropargyl esters of peptides
[18] = Aspergillus niger, pH 5, read-out: MIC ANIG, Aspergillus niger, serial dilutions from 50 ppm, read after 8 days of incubation
[19] = Aureobasidium pullulans, pH 5, read-out: MIC APUL, Aureobasidium pullulans, serial dilutions from 50 ppm, read after 8 days of incubation
[20] = Gloeophyllum trabeum, pH 5, read-out: MIC GTRA, Gloeophyllum trabeum, serial dilutions from 50 ppm, read after 8 days of incubation

C[C@H](NC(=O)OC(C)(C)C)C(=O)N[C@H](C(=O)OCC#CI)[C@@H](C)OCc1ccccc1 [Compound 16, N-t-butoxycarbonyl-L-alanyl-O-benzyl-L-threonine iodopropargyl ester]
MIC ([1]; M9G (minimal salts media with glucose), Table IIIc, iodopropargyl esters of peptides, read-out: MIC (F) APUL): < 0.8 µg/mL
MIC (Aspergillus niger (ANIG); M9G (minimal salts media with glucose), Table IIIc, iodopropargyl esters of peptides, read-out: MIC (F) ANIG): 13 µg/mL
inhibition of growth at 25 ppm (Fusarium roseum (FUS)): 0%
inhibition of growth at 25 ppm [2]: 0%
inhibition of growth at 25 ppm (Botrytis cinerea (BOC)): 0%
MIC (THREE FUNGI; [9]): > 50 µg/mL
MIC (THREE FUNGI; [10]): > 50 µg/mL
MIC (THREE FUNGI; [11]): 25 µg/mL (≈ 45.9 µM)
inhibition of growth at 25 ppm (Rhizoctonia solani (RHI)): 100%
inhibition of growth at 25 ppm [3]: 0%
inhibition of growth at 25 ppm [4]: 0%
inhibition of growth at 25 ppm (Septoria nodorum (SEP)): 100%
inhibition of growth at 25 ppm (Piricularia oryzae (PIR)): 100%
MIC [5, 12]: > 100 µg/mL
MIC (Escherichia coli (ECOL); [13]): > 100 µg/mL
MIC [6, 14]: > 100 µg/mL
inhibition of growth at 25 ppm (Pythium ultimum (PYU)): 100%
MIC [7, 15]: 6 µg/mL

C[C@H](N)C(=O)NCC(=O)OCC#CI [Compound 17, L-alanylglycine iodopropargyl ester trifluoroacetate]
MIC [1, 16]: < 0.8 µg/mL
MIC (Aspergillus niger (ANIG); [17]): < 0.8 µg/mL
inhibition of growth at 25 ppm (Fusarium roseum (FUS)): 100%
inhibition of growth at 25 ppm [2]: 100%
inhibition of growth at 25 ppm (Botrytis cinerea (BOC)): 75%
MIC (THREE FUNGI; [18]): 12.5 µg/mL
MIC (THREE FUNGI; [19]): 50 µg/mL
MIC (THREE FUNGI; [20]): 25 µg/mL
inhibition of growth at 25 ppm (Rhizoctonia solani (RHI)): 100%
inhibition of growth at 25 ppm [3]: 0%
inhibition of growth at 25 ppm [4]: 50%
inhibition of growth at 25 ppm (Septoria nodorum (SEP)): 75%
inhibition of growth at 25 ppm (Piricularia oryzae (PIR)): 100%
MIC [5, 12]: 100 µg/mL
MIC (Escherichia coli (ECOL); [13]): 100 µg/mL
MIC [6, 14]: 100 µg/mL
inhibition of growth at 25 ppm (Pythium ultimum (PYU)): 100%
MIC [7, 15]: 100 µg/mL

C[C@H](N)C(=O)N[C@@H](C)C(=O)OCC#CI [Compound 18, L-alanyl-L-alanine iodopropargyl ester trifluoroacetate]
MIC [1, 16]: < 0.8 µg/mL
MIC (Aspergillus niger (ANIG); [17]): < 0.8 µg/mL
inhibition of growth at 25 ppm (Fusarium roseum (FUS)): 100%
inhibition of growth at 25 ppm [2]: 100%
inhibition of growth at 25 ppm (Botrytis cinerea (BOC)): 50%
MIC (THREE FUNGI; [18]): 12.5 µg/mL
MIC (THREE FUNGI; [19]): 50 µg/mL
MIC (THREE FUNGI; [20]): 12.5 µg/mL
inhibition of growth at 25 ppm (Rhizoctonia solani (RHI)): 100%
inhibition of growth at 25 ppm [3]: 0%
inhibition of growth at 25 ppm [4]: 100%
inhibition of growth at 25 ppm (Septoria nodorum (SEP)): 100%
inhibition of growth at 25 ppm (Piricularia oryzae (PIR)): 100%
MIC [5, 12]: 100 µg/mL
MIC (Escherichia coli (ECOL); [13]): 100 µg/mL
MIC [6, 14]: 100 µg/mL
inhibition of growth at 25 ppm (Pythium ultimum (PYU)): 100%
MIC [7, 15]: > 100 µg/mL

C[C@H](N)C(=O)N[C@@H](CSCc1ccccc1)C(=O)OCC#CI [Compound 20, L-alanyl-S-benzyl-L-cysteine iodopropargyl ester trifluoroacetate]
MIC [1, 16]: < 0.8 µg/mL
MIC (Aspergillus niger (ANIG); [17]): < 0.8 µg/mL
inhibition of growth at 25 ppm (Fusarium roseum (FUS)): 100%
inhibition of growth at 25 ppm [2]: 100%
inhibition of growth at 25 ppm (Botrytis cinerea (BOC)): 0%
MIC (THREE FUNGI; [18]): 50 µg/mL
MIC (THREE FUNGI; [19]): 50 µg/mL
MIC (THREE FUNGI; [20]): 12.5 µg/mL
inhibition of growth at 25 ppm (Rhizoctonia solani (RHI)): 100%
inhibition of growth at 25 ppm [3]: 0%
inhibition of growth at 25 ppm [4]: 100%
inhibition of growth at 25 ppm (Septoria nodorum (SEP)): 100%
inhibition of growth at 25 ppm (Piricularia oryzae (PIR)): 100%
MIC [5, 12]: 100 µg/mL
MIC (Escherichia coli (ECOL); [13]): 100 µg/mL
MIC [6, 14]: 100 µg/mL
inhibition of growth at 25 ppm (Pythium ultimum (PYU)): 100%
MIC [7, 15]: 100 µg/mL

C[C@H](N)C(=O)N[C@H](C(=O)OCC#CI)[C@@H](C)OCc1ccccc1 [Compound 21, L-alanyl-O-benzyl-L-threonine iodopropargyl ester trifluoroacetate]
MIC [1, 16]: 1.6 µg/mL
MIC (Aspergillus niger (ANIG); [17]): < 0.8 µg/mL
inhibition of growth at 25 ppm (Fusarium roseum (FUS)): 0%
inhibition of growth at 25 ppm [2]: 100%
inhibition of growth at 25 ppm (Botrytis cinerea (BOC)): 0%
MIC (THREE FUNGI; [18]): 50 µg/mL
MIC (THREE FUNGI; [19]): > 50 µg/mL
MIC (THREE FUNGI; [20]): 50 µg/mL
inhibition of growth at 25 ppm (Rhizoctonia solani (RHI)): 100%
inhibition of growth at 25 ppm [3]: 0%
inhibition of growth at 25 ppm [4]: 0%
inhibition of growth at 25 ppm (Septoria nodorum (SEP)): 100%
inhibition of growth at 25 ppm (Piricularia oryzae (PIR)): 100%
MIC [5, 12]: 100 µg/mL
MIC (Escherichia coli (ECOL); [13]): 100 µg/mL
MIC [6, 14]: 100 µg/mL
inhibition of growth at 25 ppm (Pythium ultimum (PYU)): 100%
MIC [7, 15]: > 100 µg/mL

O=C(CNC(=O)OCc1ccccc1)OCC#CI [Compound 31, N-benzyloxycarbonylglycine iodopropargyl ester]
MIC ([1]; IIIB, trypticase soy broth (complex media), Table IIIb, read-out: MIC (F) APUL): 4 µg/mL (≈ 10.7 µM)
MIC [8]: 6.2 µg/mL (≈ 16.6 µM)
MIC (Aspergillus niger (ANIG); IIIB, trypticase soy broth (complex media), Table IIIb, read-out: MIC (F) ANIG): 2 µg/mL (≈ 5.36 µM)
MIC (THREE FUNGI; [9]): 1.6 µg/mL (≈ 4.29 µM)
MIC (THREE FUNGI; [10]): 6.2 µg/mL (≈ 16.6 µM)
MIC (THREE FUNGI; [11]): 0.8 µg/mL (≈ 2.14 µM)
ANIG growth (8 FUNGI; 0.2 PPM): 0
ANIG growth (8 FUNGI; 1.0 PPM): 0
ANIG growth (8 FUNGI; 2.5 PPM): 1
ANIG growth (8 FUNGI; 25 PPM): 1
APUL growth (8 FUNGI; 0.2 PPM): 0
APUL growth (8 FUNGI; 1.0 PPM): 0
APUL growth (8 FUNGI; 2.5 PPM): 0
APUL growth (8 FUNGI; 25 PPM): 1
CGLO growth (8 FUNGI; 0.2 PPM): 0
CGLO growth (8 FUNGI; 1.0 PPM): 0
CGLO growth (8 FUNGI; 2.5 PPM): 1
CGLO growth (8 FUNGI; 25 PPM): 1
CRES growth (8 FUNGI; 0.2 PPM): 0
CRES growth (8 FUNGI; 1.0 PPM): 0
CRES growth (8 FUNGI; 2.5 PPM): 0
CRES growth (8 FUNGI; 25 PPM): 1
GTRA growth (8 FUNGI; 0.2 PPM): 0
GTRA growth (8 FUNGI; 1.0 PPM): 0
GTRA growth (8 FUNGI; 2.5 PPM): 1
GTRA growth (8 FUNGI; 25 PPM): 1
PFUN growth (8 FUNGI; 0.2 PPM): 0
PFUN growth (8 FUNGI; 1.0 PPM): 0
PFUN growth (8 FUNGI; 2.5 PPM): 1
PFUN growth (8 FUNGI; 25 PPM): 1
RRUB growth (8 FUNGI; 0.2 PPM): 0
RRUB growth (8 FUNGI; 1.0 PPM): 0
RRUB growth (8 FUNGI; 2.5 PPM): 0
RRUB growth (8 FUNGI; 25 PPM): 1
SSER growth (8 FUNGI; 0.2 PPM): 0
SSER growth (8 FUNGI; 1.0 PPM): 0
SSER growth (8 FUNGI; 2.5 PPM): 0
SSER growth (8 FUNGI; 25 PPM): 1
MIC ([5]; IIIB, read-out: MIC (G-) PSFL, trypticase soy broth (complex media), Table IIIb): 32 µg/mL (≈ 85.8 µM)
MIC (Escherichia coli (ECOL); IIIB, read-out: MIC (G-) ECOL, trypticase soy broth (complex media), Table IIIb): 250 µg/mL (≈ 670 µM)
MIC ([6]; IIIB, read-out: MIC (G-) PSAE, trypticase soy broth (complex media), Table IIIb): 63 µg/mL (≈ 169 µM)
MIC ([7]; IIIB, read-out: MIC (G+) SAUR, trypticase soy broth (complex media), Table IIIb): 32 µg/mL (≈ 85.8 µM)
